A short description of series [1]: Rat pharmacokinetic study. Particulars: for Vd: Vdss.
In another series the target is T1, MATE2K (Homo sapiens, UniProt Q86VL8).
T1 construct: expressed in transfected cells; host or cells: HEK293
Description: Transporter inhibition using transfected HEK293 cells. Particulars: IC50, [14C]Metformin (20 µM). In kind it is in vitro ADME. The procedure:
For the inhibition studies, HEK293 cells were washed three times with warm transport buffer (Hanks’ balanced salt solution with 20 mM 4-(2-Hydroxyethyl) piperazine-1-ethanesulfonic acid, pH 7.4) followed by incubation with test compounds containing probe substrates: 10 or 20 µM [^14C]-metformin (OCT1, OCT2, MATE1, MATE2K), 0.5 µM [^3H] para-aminohippuric acid (OAT1), 0.1 µM [^3H] estrone-3-sulfate (OAT3) or 0.5 µM rosuvastatin (OATP1B1/1B3). Uptake was terminated by washing cells at least three times with ice-cold transport buffer and then lysing with 0.2 mL of scintillation fluid or 0.225 mL of methanol containing internal standard. For radiolabeled compounds, radioactivity in each sample was quantified by measurement on MicroBeta (Perkin Elmer). For rosuvastatin, cell extracts were dried down under nitrogen and reconstituted in 50:50 (v:v) methanol:water prior to injection onto a LC-MS/MS system. The total cellular protein content was determined by using a BCA Protein Assay Kit (Pierce Biotechnology) following the manufacturer’s protocol. Uptake ratio was then derived as a ratio of accumulation in transfected cells to accumulation in wild-type cells. The half-maximal inhibitory concentration (IC50) for each transporter was calculated in GraphPad Prism.

Series [2] is described as follows: Plasma protein binding by equilibrium dialysis. Particulars: rat plasma, 3.44 uM; for fraction unbound at 6 h, 3.44 uM: rat, plasma.
For a further series, the target named is T2, OAT1 (Homo sapiens, UniProt Q4U2R8).
T2 sequence (Q4U2R8 1-563): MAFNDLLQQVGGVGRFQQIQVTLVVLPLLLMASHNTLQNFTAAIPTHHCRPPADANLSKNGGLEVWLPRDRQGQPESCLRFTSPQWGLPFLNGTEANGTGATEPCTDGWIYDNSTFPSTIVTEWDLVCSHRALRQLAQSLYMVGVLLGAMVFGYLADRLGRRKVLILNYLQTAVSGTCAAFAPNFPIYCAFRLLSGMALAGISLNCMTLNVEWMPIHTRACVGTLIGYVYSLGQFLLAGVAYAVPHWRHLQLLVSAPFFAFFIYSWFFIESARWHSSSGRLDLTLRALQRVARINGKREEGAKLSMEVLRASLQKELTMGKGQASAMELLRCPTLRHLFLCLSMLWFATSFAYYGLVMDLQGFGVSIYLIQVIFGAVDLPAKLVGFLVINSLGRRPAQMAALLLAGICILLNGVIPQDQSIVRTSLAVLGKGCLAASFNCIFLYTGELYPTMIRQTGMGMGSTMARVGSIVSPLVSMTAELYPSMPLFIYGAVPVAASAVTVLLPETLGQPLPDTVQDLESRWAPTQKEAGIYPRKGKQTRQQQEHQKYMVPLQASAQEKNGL
Description: Transporter inhibition using transfected HEK293 cells. The settings on record: IC50, [3H]PAH (0.5 µM).

Series [3] is described as follows: Monkey pharmacokinetic study. The settings on record: for Vd: Vdss.
Series [4] concerns SARS-CoV-2 Washington strain 1 (USA_WA1/2020). In kind it is cell-based.
The mark [5] stands for this setting: rat, PF-07304814 prodrug dosed […] intravenous, individual rats, […].
Where [6] appears, read: monkey, PF-07304814 prodrug dosed […] intravenous, individual monkeys, […].

The structures appear in SMILES notation. ≈ marks a conversion by molar mass, not a printed value. Where “and” joins values, the source holds several entries; their conditions need not be identical. Equal entries are not always repeated.

T1 sequence (Q86VL8 1-566 isoform Q86VL8-3): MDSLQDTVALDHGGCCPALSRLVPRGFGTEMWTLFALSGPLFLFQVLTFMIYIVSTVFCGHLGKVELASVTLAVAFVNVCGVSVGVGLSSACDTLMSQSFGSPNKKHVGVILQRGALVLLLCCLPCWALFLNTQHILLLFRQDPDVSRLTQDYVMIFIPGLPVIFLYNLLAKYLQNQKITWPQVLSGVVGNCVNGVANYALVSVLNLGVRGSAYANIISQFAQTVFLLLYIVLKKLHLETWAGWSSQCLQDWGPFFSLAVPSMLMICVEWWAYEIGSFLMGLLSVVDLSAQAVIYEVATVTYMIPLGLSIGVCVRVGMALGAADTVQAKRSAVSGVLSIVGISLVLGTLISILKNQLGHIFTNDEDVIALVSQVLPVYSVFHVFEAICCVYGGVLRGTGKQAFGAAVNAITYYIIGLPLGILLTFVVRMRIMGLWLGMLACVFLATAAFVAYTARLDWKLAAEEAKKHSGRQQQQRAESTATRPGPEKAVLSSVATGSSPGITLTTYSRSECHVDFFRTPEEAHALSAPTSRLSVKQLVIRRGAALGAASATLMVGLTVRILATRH

With `COc1cccc2[nH]c(C(=O)N[C@@H](CC(C)C)C(=O)N[C@@H](C[C@@H]3CCNC3=O)C(=O)COP(=O)(O)O)cc12` [PF-07304814], the solubility at 48 h is above 200 mg/mL in “Solubility measurement” (deionized water and pH buffers); 200 mg/mL (≈ 362 mM) in the series “Solubility measurement” (deionized water and pH buffers (aqueous)). Moreover, the clearance in series [1] (male, Wistar-Hannover, rat, plasma, iv, CL, rat IV, PF-07304814 […] (n=2, range), PF-00835231 2mg/kg (n=3, ± SD)) turned out to be 194 mL/min/kg; in series [1] (male, Wistar-Hannover, rat, plasma, iv, […], Clearance, Mean Data, PF-07304814 prodrug dosed […] intravenous, mean), 194 mL/min/kg; in series [1] (male, Wistar-Hannover, rat, plasma, iv, […], Clearance, PF-07304814 prodrug dosed […] intravenous, individual rats) it was 168 mL/min/kg; in series [1] (setting [5]) it was 220 mL/min/kg; in series [3] (male, cynomolgus monkey, plasma, iv, Cl, monkey IV (n=2, range), PF-07304814 […], PF-00835231 1.0mg/kg) it was 191 mL/min/kg; in series [3] (male, cynomolgus monkey, plasma, iv, […], Clearance, Mean Data, monkey, PF-07304814 prodrug dosed […] intravenous, mean), 191 mL/min/kg. Moreover, the clearance in series [3] (male, cynomolgus monkey, plasma, iv, […], Clearance, monkey, PF-07304814 prodrug dosed […] intravenous, individual monkeys) amounted to 252 mL/min/kg; in series [3] (setting [6]) it was 129 mL/min/kg. Moreover, the half-life in series [1] (male, Wistar-Hannover, rat, plasma, iv, Terminal T1/2, rat IV, PF-07304814 […] (n=2, range), PF-00835231 2mg/kg (n=3, ± SD)) was 0.3 h; in series [1] (male, Wistar-Hannover, rat, plasma, iv, […], Half life, Mean Data, PF-07304814 prodrug dosed […] intravenous, mean) it was 0.3 h; in series [1] (male, Wistar-Hannover, rat, plasma, iv, […], Half life, PF-07304814 prodrug dosed […] intravenous, individual rats) it was 0.36 h; in series [3] (male, cynomolgus monkey, plasma, iv, Terminal T1/2, monkey IV (n=2, range), PF-07304814 […], PF-00835231 1.0mg/kg), 2.6 h; in series [3] (male, cynomolgus monkey, plasma, iv, […], Half life, Mean Data, monkey, PF-07304814 prodrug dosed […] intravenous, mean) it was 2.6 h; in series [3] (male, cynomolgus monkey, plasma, iv, […], Half life, monkey, PF-07304814 prodrug dosed […] intravenous, individual monkeys) it was 2.2 h. Moreover, the volume of distribution (Vd) was found to be 0.58 L/kg in series [1] (male, Wistar-Hannover, rat, plasma, iv, rat IV, PF-07304814 […] (n=2, range), PF-00835231 2mg/kg (n=3, ± SD)); 0.58 L/kg in series [1] (male, Wistar-Hannover, rat, plasma, iv, […], Mean Data, PF-07304814 prodrug dosed […] intravenous, mean); 0.567 L/kg in series [1] (male, Wistar-Hannover, rat, plasma, iv, […], PF-07304814 prodrug dosed […] intravenous, individual rats); 1.8 L/kg in series [3] (male, cynomolgus monkey, plasma, iv, monkey IV (n=2, range), PF-07304814 […], PF-00835231 1.0mg/kg); 1.78 L/kg in series [3] (male, cynomolgus monkey, plasma, iv, […], Mean Data, monkey, PF-07304814 prodrug dosed […] intravenous, mean). The “%unchanged in urine” value was below 0.1% in series [1] (rat IV, PF-07304814 […], PF-00835231 2mg/kg) and below 0.1% in series [3] (monkey IV, PF-07304814 […], PF-00835231 1.0mg/kg). The Half life in series [1] (setting [5]) is 0.23 h; in series [3] (setting [6]), 3.0 h. Besides, the Vdss in series [1] (setting [5]) is listed as 0.592 L/kg. In addition, the IC50 against MATE2K and on OAT1 was above 300 µM in each case. Moreover, the unbound share (fraction unbound) at 6 h, 3.44 uM in series [2] (Sprague-Dawley, pH 7.4, fraction unbound Geomean, n=12) came to 0.379; in series [2] (both, Sprague Dawley, pH 7.4, Individual fraction unbound, Sprague Dawley, male and female, Day 1), 0.404; in series [2] (both, Sprague Dawley, pH 7.4, Individual fraction unbound, Sprague Dawley, male and female, Day 2), 0.362; in series [2] (both, Sprague Dawley, pH 7.4, Individual fraction unbound, Sprague Dawley, male and female, Day 3), 0.404. Besides, the Individual fraction unbound is 0.384 and 0.405 and 0.491 in series [2] (Sprague Dawley, male and female, Day 1); 0.301 and 0.338 and 0.325 in series [2] (Sprague Dawley, male and female, Day 2); 0.406 and 0.385 and 0.381 in series [2] (Sprague Dawley, male and female, Day 3). Besides, the “Total Concn, Mean Data” value in series [3] (monkey plasma, PF-07304814 prodrug dosed […] intravenous, time 7 h, mean, BLQ=0.1ng/mL) was “BLQ”. In addition, the “Urine Concn” value in series [3] (monkey urine 0-7h, PF-07304814 prodrug dosed […] intravenous, individual monkeys, BLQ=1ng/mL for urine) is recorded as “BLQ”.
Regarding `COc1cccc2[nH]c(C(=O)N[C@@H](CC(C)C)C(=O)N[C@@H](C[C@@H]3CCNC3=O)C(=O)CO)cc12` [PF-00835231-00], the “% Well Effect” value in series [4] was 0.795%.

The values above are taken from article PMC8523698, “Preclinical characterization of an intravenous coronavirus 3CL protease inhibitor for the potential treatment of COVID19” (Nature Communications, 2021).
